Target: MAPK14 (human) (UniProt Q16539)
Test: Inhibition of MAPK14 Kinase Activity

Sequence of MAPK14 (human) (Q16539 whole entry, looked up): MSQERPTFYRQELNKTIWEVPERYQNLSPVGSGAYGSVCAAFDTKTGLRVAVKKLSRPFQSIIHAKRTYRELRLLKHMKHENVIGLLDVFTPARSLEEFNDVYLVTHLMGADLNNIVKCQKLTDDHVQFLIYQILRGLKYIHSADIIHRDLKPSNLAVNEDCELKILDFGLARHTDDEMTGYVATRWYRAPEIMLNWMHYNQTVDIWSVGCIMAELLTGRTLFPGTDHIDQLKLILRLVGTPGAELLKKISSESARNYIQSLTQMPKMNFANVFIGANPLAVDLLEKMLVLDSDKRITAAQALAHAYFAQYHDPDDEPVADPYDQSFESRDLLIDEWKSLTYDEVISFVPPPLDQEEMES

IC50, > 20 µM:
CC(C)(C)NS(=O)(=O)c1ccc(-c2cnc3cccc(Nc4ccccn4)c3c2)cc1
c1ccc(-c2cnc3ccc4ccncc4c3c2)cc1
Nc1ccc(-c2cnc3ccc4ccncc4c3c2)cc1
CS(=O)(=O)Nc1ccc(-c2cnc3cccc(-c4ccncc4)c3c2)cc1
CS(=O)(=O)N(c1ccc(-c2cnc3ccc4ccncc4c3c2)cc1)S(C)(=O)=O
CS(=O)(=O)Nc1ccc(-c2cnc3cccc(Nc4ncccn4)c3c2)cc1
Oc1ccc(-c2cnc3ccc4ccncc4c3c2)cc1
CC(=O)Nc1ccc(-c2cnc3ccc4ccncc4c3c2)cc1
CS(=O)(=O)Nc1ccc(-c2cnc3ccc4ccncc4c3c2)cc1
CS(=O)(=O)Nc1ccc(-c2cnc3cccc(Nc4ccc(Cl)cn4)c3c2)cc1
CS(=O)(=O)Nc1ccc(-c2cnc3cccc(-c4cccnc4)c3c2)cc1
CS(=O)(=O)Nc1ccc(-c2cnc3cccc(Nc4ccccn4)c3c2)cc1
CC(C)(C)NS(=O)(=O)c1ccc(-c2cnc3cccc(Nc4ccc(Cl)cn4)c3c2)cc1
